This assay concerns 485176-168-R4-J1-PDC complex spheroid growth. In words: Anticancer human tumor 485176-168-R4-J1-PDC patient-derived pancreatic adenocarcinoma cell line growth inhibition [RAS]. The conditions noted are these: for viability, T/C: stronger effect = lower value. A digest of the protocol: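 Agents were tested in combination matrices in half-log decrements from a top concentration at or near clinical Cmax (10 microM if undetermined). Targets were multi-cell spheroids of tumour lines plus HUVEC and MSC stromal cells.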

[1] abbreviates: curve of first compound, second compound 0.000949 µM.
[2] abbreviates: curve of first compound, second compound 0.003 µM.
[3] abbreviates: curve of first compound, second compound 0.00949 µM.
Where [4] appears, read: curve of first compound, second compound 0.03 µM.
Setting [5] is: curve of first compound, second compound 0.0949 µM.
[6] abbreviates: curve of first compound, second compound 0.3 µM.

From PubChem BioAssay AID2060906 (Molecular Pharmacology Branch, DTP, NCI, 2025) come the findings set out here.

Bounds are passed on as bounds.
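Also: spheroids exposed to compounds for seven days before readout.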
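For viability, T/C in this document: luminescence viability expressed relative to DMSO vehicle wells set as 100%.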

Turning to `C=CC(=O)Nc1cc(Nc2nccc(-c3cn(C)c4ccccc34)n2)c(OC)cc1N(C)CCN(C)C` + CCn1c(-c2cc(N3CCN(C)CC3)cnc2C(C)OC)c2c3cc(ccc31)-c1csc(n1)CC(NC(=O)C1CC1C)C(=O)N1CCCC(N1)C(=O)OCC(C)(C)C2, the IC50 was more than 1000 nM under setting [1]; more than 1000 nM under setting [2]; more than 1000 nM under setting [3]; more than 1000 nM under setting [4]; more than 1000 nM under setting [5]; more than 1000 nM under setting [6]. The viability, T/C (second compound 0.000949 µM, first compound 0.00316 µM) was 88.1%; the viability, T/C (second compound 0.000949 µM, first compound 0.01 µM) is 91.4%; the viability, T/C (second compound 0.000949 µM, first compound 0.0316 µM) is 95.6%; the viability, T/C (second compound 0.000949 µM, first compound 0.1 µM) is 89.9%; the viability, T/C (second compound 0.000949 µM, first compound 0.316 µM) is 79.7%; the viability, T/C (second compound 0.000949 µM, first compound 1 µM) is 69.4%. Moreover, the viability, T/C by setting is: (second compound 0.003 µM, first compound 0.00316 µM) 92.8%; (second compound 0.003 µM, first compound 0.01 µM) 80.3%; (second compound 0.003 µM, first compound 0.0316 µM) 78.6%; (second compound 0.003 µM, first compound 0.1 µM) 76%; (second compound 0.003 µM, first compound 0.316 µM) 86.4%; (second compound 0.003 µM, first compound 1 µM) 60.5%. For the same molecule, the viability, T/C by setting is: (second compound 0.00949 µM, first compound 0.00316 µM) 91.8%; (second compound 0.00949 µM, first compound 0.01 µM) 93.3%; (second compound 0.00949 µM, first compound 0.0316 µM) 73.7%; (second compound 0.00949 µM, first compound 0.1 µM) 94%; (second compound 0.00949 µM, first compound 0.316 µM) 83.2%; (second compound 0.00949 µM, first compound 1 µM) 62.9%. Moreover, the viability, T/C is 70% (second compound 0.03 µM, first compound 0.00316 µM); 87.7% (second compound 0.03 µM, first compound 0.01 µM); 85.2% (second compound 0.03 µM, first compound 0.0316 µM); 90.6% (second compound 0.03 µM, first compound 0.1 µM); 63.4% (second compound 0.03 µM, first compound 0.316 µM); 57.9% (second compound 0.03 µM, first compound 1 µM). In addition, the viability, T/C by setting is: (second compound 0.0949 µM, first compound 0.00316 µM) 77.8%; (second compound 0.0949 µM, first compound 0.01 µM) 83%; (second compound 0.0949 µM, first compound 0.0316 µM) 81.2%; (second compound 0.0949 µM, first compound 0.1 µM) 61.9%; (second compound 0.0949 µM, first compound 0.316 µM) 83.3%; (second compound 0.0949 µM, first compound 1 µM) 64.3%. In addition, the viability, T/C is, setting by setting: (second compound 0.3 µM, first compound 0.00316 µM) 81.6%; (second compound 0.3 µM, first compound 0.01 µM) 72.9%; (second compound 0.3 µM, first compound 0.0316 µM) 73.4%; (second compound 0.3 µM, first compound 0.1 µM) 84.2%; (second compound 0.3 µM, first compound 0.316 µM) 71.4%; (second compound 0.3 µM, first compound 1 µM) 50.2%.
Take `NC1c2ccccc2OC12CCN(c1cnc3c(N4CCCc5ncccc54)n[nH]c3n1)CC2` (stereo unspecified): the viability, T/C (compound 0.1 µM) was 79.2% [middle of 4 runs]; the viability, T/C (compound 0.316 µM) was 86.1% [middle of 4 runs]; the viability, T/C (compound 1 µM) is 85.1% [middle of 4 runs]; the viability, T/C (compound 3.16 µM) is 84.5% [middle of 4 runs]; the viability, T/C (compound 10 µM) is 72.2% [middle of 4 runs]. Besides, the IC50 (curve of compound) was more than 10000 nM.
Regarding `CC1(C)CCC(Nc2ncc(C(F)(F)F)c(-c3c[nH]c4c(P(C)(C)=O)c(C#N)ccc34)n2)CN1` (stereo unspecified) + CCn1c(-c2cc(N3CCN(C)CC3)cnc2C(C)OC)c2c3cc(ccc31)-c1csc(n1)CC(NC(=O)C1CC1C)C(=O)N1CCCC(N1)C(=O)OCC(C)(C)C2, the IC50 runs as follows: under setting [1], more than 300 nM; under setting [2], more than 300 nM; under setting [3], 82.5 nM; under setting [4], 121 nM; under setting [5], more than 300 nM; under setting [6], 70 nM. For the same molecule, the viability, T/C runs as follows: (second compound 0.000949 µM, first compound 0.000949 µM) 94.9%; (second compound 0.000949 µM, first compound 0.003 µM) 91.1%; (second compound 0.000949 µM, first compound 0.00949 µM) 93%; (second compound 0.000949 µM, first compound 0.03 µM) 59.2%; (second compound 0.000949 µM, first compound 0.0949 µM) 55.1%; (second compound 0.000949 µM, first compound 0.3 µM) 49.3%. The viability, T/C was 93.5% (second compound 0.003 µM, first compound 0.000949 µM); 101% (second compound 0.003 µM, first compound 0.003 µM); 75.3% (second compound 0.003 µM, first compound 0.00949 µM); 54.5% (second compound 0.003 µM, first compound 0.03 µM); 52% (second compound 0.003 µM, first compound 0.0949 µM); 54.9% (second compound 0.003 µM, first compound 0.3 µM). The viability, T/C reads like this: (second compound 0.00949 µM, first compound 0.000949 µM) 84.9%; (second compound 0.00949 µM, first compound 0.003 µM) 96.3%; (second compound 0.00949 µM, first compound 0.00949 µM) 104%; (second compound 0.00949 µM, first compound 0.03 µM) 55.8%; (second compound 0.00949 µM, first compound 0.0949 µM) 51.5%; (second compound 0.00949 µM, first compound 0.3 µM) 46.9%. Besides, the viability, T/C is 101% (second compound 0.03 µM, first compound 0.000949 µM); 92.8% (second compound 0.03 µM, first compound 0.003 µM); 76.5% (second compound 0.03 µM, first compound 0.00949 µM); 64.4% (second compound 0.03 µM, first compound 0.03 µM); 49.8% (second compound 0.03 µM, first compound 0.0949 µM); 45.8% (second compound 0.03 µM, first compound 0.3 µM). Also, the viability, T/C reads like this: (second compound 0.0949 µM, first compound 0.000949 µM) 87.1%; (second compound 0.0949 µM, first compound 0.003 µM) 76.8%; (second compound 0.0949 µM, first compound 0.00949 µM) 76.2%; (second compound 0.0949 µM, first compound 0.03 µM) 57.4%; (second compound 0.0949 µM, first compound 0.0949 µM) 61.9%; (second compound 0.0949 µM, first compound 0.3 µM) 54.8%. Further, the viability, T/C is, setting by setting: (second compound 0.3 µM, first compound 0.000949 µM) 89.3%; (second compound 0.3 µM, first compound 0.003 µM) 93.4%; (second compound 0.3 µM, first compound 0.00949 µM) 70.5%; (second compound 0.3 µM, first compound 0.03 µM) 57.3%; (second compound 0.3 µM, first compound 0.0949 µM) 47%; (second compound 0.3 µM, first compound 0.3 µM) 47.2%.
Regarding `CCc1c2c(nc3ccc(O)cc13)-c1cc3c(c(=O)n1C2)COC(=O)[C@]3(O)CC`, the viability, T/C reads like this: (compound 0.003 µM) 86.2% [middle of 4 runs]; (compound 0.00949 µM) 66% [middle of 4 runs]; (compound 0.03 µM) 36.5% [middle of 4 runs]; (compound 0.0949 µM) 14% [middle of 4 runs]; (compound 0.3 µM) 7.88% [middle of 4 runs]. For the same molecule, for the setting “curve of compound”, the concentration for half-maximal inhibition (IC50) is 17.9 nM [middle of 4 runs].

In general, IC50 refers to the concentration that gives 50% inhibition. For orientation: viability, T/C means the result in the treated group divided by that in the control group, in per cent.
